Measurements from US20230382925A1, “MODULATORS OF CYSTIC FIBROSIS TRANSMEMBRANE CONDUCTANCE REGULATOR” (VERTEX PHARMACEUTICALS INCORPORATED, priority 2020, published 2023).
Where two headings read alike, the source gives them in different places.

Target: CFTR (Homo sapiens, UniProt P13569)
Test: Membrane Potential Dye, Enteroid Assay B
Assay type: cell-based
Summary of the method: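 Human intestinal enteroid cells exposed to compound 18-24 h at 37 °C, then loaded with methyl oxonol membrane-potential dye plus CaCC blockers. Chloride transport triggered in chloride-free buffer with 10 μM forskolin, 100 μM IBMX, 300 nM Compound III; fluorescence read 15 min, expressed as % of triple-corrector/potentiator combination control.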

[1] = Table 10, read-out: Ent. B EC50

CFTR, sequence (P13569 with tags, fused parts or gaps DEL508-508): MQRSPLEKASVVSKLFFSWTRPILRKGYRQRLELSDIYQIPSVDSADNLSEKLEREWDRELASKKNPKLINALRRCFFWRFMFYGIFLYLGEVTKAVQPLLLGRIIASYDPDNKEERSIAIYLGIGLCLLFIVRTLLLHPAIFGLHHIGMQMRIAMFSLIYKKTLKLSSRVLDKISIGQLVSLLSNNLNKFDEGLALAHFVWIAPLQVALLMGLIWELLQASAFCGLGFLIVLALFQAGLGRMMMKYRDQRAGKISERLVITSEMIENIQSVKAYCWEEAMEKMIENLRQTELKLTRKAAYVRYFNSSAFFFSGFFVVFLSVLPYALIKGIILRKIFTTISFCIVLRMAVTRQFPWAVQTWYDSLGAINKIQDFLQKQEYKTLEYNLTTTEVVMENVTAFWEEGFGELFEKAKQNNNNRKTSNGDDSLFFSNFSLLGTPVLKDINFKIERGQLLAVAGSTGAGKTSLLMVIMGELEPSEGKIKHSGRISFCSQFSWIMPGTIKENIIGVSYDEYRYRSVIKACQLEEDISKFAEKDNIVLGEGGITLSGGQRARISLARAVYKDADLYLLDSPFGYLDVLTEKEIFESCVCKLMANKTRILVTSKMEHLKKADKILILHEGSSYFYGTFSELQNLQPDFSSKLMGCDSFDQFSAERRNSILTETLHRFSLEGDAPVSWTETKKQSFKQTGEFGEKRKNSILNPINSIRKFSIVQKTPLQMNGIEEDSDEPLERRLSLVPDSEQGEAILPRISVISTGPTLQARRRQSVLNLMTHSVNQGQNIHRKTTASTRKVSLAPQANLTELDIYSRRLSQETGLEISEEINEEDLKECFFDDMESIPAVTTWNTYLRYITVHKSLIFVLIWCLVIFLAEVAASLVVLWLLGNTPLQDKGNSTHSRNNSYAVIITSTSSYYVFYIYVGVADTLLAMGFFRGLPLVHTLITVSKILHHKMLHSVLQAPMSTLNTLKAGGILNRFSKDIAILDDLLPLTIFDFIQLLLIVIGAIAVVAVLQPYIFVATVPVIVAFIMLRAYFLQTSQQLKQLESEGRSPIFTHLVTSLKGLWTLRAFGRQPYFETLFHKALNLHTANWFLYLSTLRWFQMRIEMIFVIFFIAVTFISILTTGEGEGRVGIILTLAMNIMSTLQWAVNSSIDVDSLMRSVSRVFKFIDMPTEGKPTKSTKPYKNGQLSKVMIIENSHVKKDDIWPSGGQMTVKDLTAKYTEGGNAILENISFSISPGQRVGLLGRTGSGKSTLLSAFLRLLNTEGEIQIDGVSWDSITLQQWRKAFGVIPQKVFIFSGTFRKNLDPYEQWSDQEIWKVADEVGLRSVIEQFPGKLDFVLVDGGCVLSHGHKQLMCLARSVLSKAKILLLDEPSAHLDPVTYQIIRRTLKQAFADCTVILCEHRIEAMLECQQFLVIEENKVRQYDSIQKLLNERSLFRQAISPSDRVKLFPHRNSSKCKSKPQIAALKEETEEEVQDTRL

SMILES | Ent. B Max Activity (%) (Table 9) | EC50 (Table 9, read-out: Ent. B EC50) | also measured
Cc1cccc(C)c1-c1cc2nc(n1)NS(=O)(=O)c1cccc(c1)C(=O)N(C1CC(NC(=O)OC(C)C)C1)[C@H](CC1(C(F)(F)F)CC1)CO2 (single isomer, unassigned) [Compound 59] | +++ (+++ is >60%) | < 1 µM | –
CCCN1CCC2(CC1)CC(N1C(=O)c3cccc(c3)S(=O)(=O)Nc3nc(cc(-c4c(C)cccc4C)n3)OC[C@H]1CC(C)C)C2 [Compound 303] | – | – | Ent. B Max Activity (%): +++ (+++ is >60%); EC50 (read-out: Ent. B EC50): < 1 µM
Cc1cccc(C)c1-c1cc2nc(n1)NS(=O)(=O)c1cc(n(C)n1)C(=O)N(C1CC3(C1)CC(C(C)(C)O)C3)[C@H](CC(C)(C)C)CO2 (some centres unmarked) [Compound 436] | – | – | Ent. B Max Activity (%) (Table 10): +++ (+++ is >60%); EC50 [1]: < 1 µM
Cc1cccc(C)c1-c1cc2nc(n1)NS(=O)(=O)c1cccc(c1)C(=O)N([C@H]1C[C@@]3(C[C@H](NC(C)C)C3)C1)[C@H](CC1(C(F)(F)F)CC1)CO2 (some centres unmarked) [Compound 266] | +++ (+++ is >60%) | < 1 µM | –
Cc1cccc(C)c1-c1cc2nc(n1)NS(=O)(=O)c1cccc(c1)C(=O)N([C@@H]1CC[C@@H]1C1CC1)[C@H](CC(C)(C)C)CO2 (single isomer, unassigned) [Compound 148] | – | – | Ent. B Max Activity (%) (Table 10): +++ (+++ is >60%); EC50 [1]: < 1 µM
COC(=O)N(C)C1CC(N2C(=O)c3cccc(c3)S(=O)(=O)Nc3nc(cc(-c4c(C)cccc4C)n3)OC[C@H]2CC(C)(C)C)C1 (single isomer, unassigned) [Compound 170] | – | – | Ent. B Max Activity (%) (Table 10): ++ (++ is 30-60%)
CNC(=O)O[C@H]1C[C@@H](N2C(=O)c3cccc(c3)S(=O)(=O)Nc3nc(cc(-c4c(C)cccc4C)n3)OC[C@H]2CC(C)C)C1 (stereo in doubt) [Compound 361] | – | – | Ent. B Max Activity (%) (Table 10): ++ (++ is 30-60%); EC50 [1]: < 1 µM
CN[C@H]1C[C@@]2(C1)C[C@H](N1C(=O)c3cccc(c3)S(=O)(=O)Nc3nc(cc(-c4c(C)cccc4C)n3)OC[C@H]1CC1(C(F)(F)F)CC1)C2 (some centres unmarked) [Compound 267] | +++ (+++ is >60%) | < 1 µM | –
CC(=O)NCC[C@H]1C[C@@H](N2C(=O)c3cccc(c3)S(=O)(=O)Nc3nc(cc(-c4c(C)cccc4C)n3)OC[C@H]2CC(C)(C)C)C1 (single isomer, unassigned) [Compound 155] | – | – | Ent. B Max Activity (%) (Table 10): +++ (+++ is >60%); EC50 [1]: < 1 µM
CO[C@@H](C)C(=O)N1CCC2(CC1)CC(N1C(=O)c3cccc(c3)S(=O)(=O)Nc3nc(cc(-c4c(C)cccc4C)n3)OC[C@H]1CC(C)C)C2 [Compound 454] | +++ (+++ is >60%) | < 1 µM | –
Cc1cccc(C)c1-c1cc2nc(n1)NS(=O)(=O)c1cccc(c1)C(=O)N([C@H]1C[C@@H](C(C)(C)O)C1)[C@H](CC(C)(C)C)CO2 (single isomer, unassigned) [Compound 142] | – | – | Ent. B Max Activity (%) (Table 10): +++ (+++ is >60%); EC50 [1]: < 1 µM
CCC(=O)N1CCC2(CC1)CC(N1C(=O)c3cccc(c3)S(=O)(=O)Nc3nc(cc(-c4c(C)cccc4C)n3)OC[C@H]1CC(C)(C)C(F)(F)F)C2 [Compound 417] | – | – | Ent. B Max Activity (%) (Table 10): +++ (+++ is >60%); EC50 [1]: < 1 µM
Cc1cccc(C)c1-c1cc2nc(n1)NS(=O)(=O)c1cccc(c1)C(=O)N([C@H]1C[C@]3(C[C@H](NC(C)C)C3)C1)[C@H](CC1(C(F)(F)F)CC1)CO2 (some centres unmarked) [Compound 265] | +++ (+++ is >60%) | < 1 µM | –
CC(=O)N1CCC2(CC1)CC(N1C(=O)c3cccc(c3)S(=O)(=O)Nc3nc(cc(-c4c(C)cccc4C)n3)OC[C@H]1CC(C)(C)C(F)(F)F)C2 [Compound 420] | +++ (+++ is >60%) | < 1 µM | –
Cc1cccc(C)c1-c1cc2nc(n1)NS(=O)(=O)c1cccc(c1)C(=O)N(C1CC(NC(=O)OC(C)C)C1)[C@H](CC1(C(F)(F)F)CC1)CO2 (single isomer, unassigned) [Compound 60] | +++ (+++ is >60%) | < 1 µM | –
Cc1cccc(C)c1-c1cc2nc(n1)NS(=O)(=O)c1cccc(c1)C(=O)N(C1CC3(CCN(CCOC(C)C)CC3)C1)[C@H](CC(C)(C)C)CO2 [Compound 215] | – | – | Ent. B Max Activity (%): +++ (+++ is >60%); EC50 (read-out: Ent. B EC50): < 1 µM
Cc1cccc(C)c1-c1cc2nc(n1)NS(=O)(=O)c1cccc(c1)C(=O)N(C1CC3(CCN(CC(F)F)CC3)C1)[C@H](CC(C)C)CO2 [Compound 322] | – | – | Ent. B Max Activity (%): +++ (+++ is >60%); EC50 (read-out: Ent. B EC50): < 1 µM
[H][C@]1(N2C(=O)c3cccc(c3)S(=O)(=O)Nc3nc(cc(-c4c(C)cccc4C)n3)OC[C@H]2CC(C)C)C[C@@]2(C[C@H](C(C)(C)O)C2)C1 (stereo in doubt) [Compound 412] | – | – | Ent. B Max Activity (%) (Table 10): +++ (+++ is >60%); EC50 [1]: < 1 µM
Cc1cccc(C)c1-c1cc2nc(n1)NS(=O)(=O)c1cccc(c1)C(=O)N(C1CC3(CC(N)C3)C1)[C@H](CC(C)C)CO2 (stereo in doubt) [Compound 291] | +++ (+++ is >60%) | < 1 µM | –
COCC(C)N1CCC2(CC1)CC(N1C(=O)c3cccc(c3)S(=O)(=O)Nc3nc(cc(-c4c(C)cccc4C)n3)OC[C@H]1CC(C)C)C2 (some centres unmarked) [Compound 257] | +++ (+++ is >60%) | < 1 µM | –
[H][C@]1(N2C(=O)c3cccc(c3)S(=O)(=O)Nc3nc(cc(-c4c(C)cccc4C)n3)OC[C@H]2CC(C)(C)C)C[C@@]2(C[C@H](C(=O)N(C)C)C2)C1 (single isomer, unassigned) [Compound 115] | – | – | Ent. B Max Activity (%) (Table 10): +++ (+++ is >60%); EC50 [1]: < 1 µM
Cc1cccc(C)c1-c1cc2nc(n1)NS(=O)(=O)c1cccc(c1)C(=O)N(C1CC3(CC(C(=O)N(C)C)C3)C1)[C@H](CC(C)(C)C)CO2 (single isomer, unassigned) [Compound 114] | – | – | Ent. B Max Activity (%) (Table 10): +++ (+++ is >60%); EC50 [1]: < 1 µM
COCCN1CCC(N2C(=O)c3cccc(c3)S(=O)(=O)Nc3nc(cc(-c4c(C)cccc4C)n3)OC[C@H]2CC(C)C)C1 (stereo in doubt) [Compound 294] | – | – | Ent. B Max Activity (%): +++ (+++ is >60%); EC50 (read-out: Ent. B EC50): < 1 µM
CNC(=O)C1CC2(C1)CC(N1C(=O)c3cccc(c3)S(=O)(=O)Nc3nc(cc(-c4c(C)cccc4C)n3)OC[C@H]1CC(C)(C)C)C2 (some centres unmarked) [Compound 235] | – | – | Ent. B Max Activity (%) (Table 10): +++ (+++ is >60%); EC50 [1]: < 1 µM
CO[C@H]1C[C@@H](N2C(=O)c3cccc(c3)S(=O)(=O)Nc3nc(cc(-c4c(C)cccc4C)n3)OC[C@H]2CC(C)(C)C)C1 (single isomer, unassigned) [Compound 151] | – | – | Ent. B Max Activity (%): +++ (+++ is >60%); EC50 (read-out: Ent. B EC50): < 1 µM

Further lines, with some results ahead:

Ent. B Max Activity (%) (Table 9) | EC50 (Table 9, read-out: Ent. B EC50) | SMILES | also measured
+++ (+++ is >60%) | < 1 µM | Cc1cccc(C)c1-c1cc2nc(n1)NS(=O)(=O)c1cccc(c1)C(=O)N(C1CC(NCCC(C)C)C1)[C@H](CC(C)C)CO2 (some centres unmarked) [Compound 377] | –
+++ (+++ is >60%) | < 1 µM | CCN1CCC2(CC1)CC(N1C(=O)c3cccc(c3)S(=O)(=O)Nc3nc(cc(-c4c(C)cccc4C)n3)OC[C@H]1CC(C)C)C2 [Compound 258] | –
+++ (+++ is >60%) | < 1 µM | COC(=O)NC1CC(N2C(=O)c3cccc(c3)S(=O)(=O)Nc3nc(cc(-c4c(C)cccc4C)n3)OC[C@H]2CC(C)(C)C(F)(F)F)C1 (some centres unmarked) [Compound 418] | –
+++ (+++ is >60%) | < 1 µM | COCCNC1CC2(C1)CC(N1C(=O)c3cccc(c3)S(=O)(=O)Nc3nc(cc(-c4c(C)cccc4C)n3)OC[C@H]1CC(C)C)C2 (stereo in doubt) [Compound 288] | –
+++ (+++ is >60%) | < 1 µM | Cc1cccc(C)c1-c1cc2nc(n1)NS(=O)(=O)c1cccc(c1)C(=O)N([C@H]1C[C@@]3(C[C@H](N(C)C(=O)OC(C)C)C3)C1)[C@H](CC1(C(F)(F)F)CC1)CO2 (some centres unmarked) [Compound 272] | –
+++ (+++ is >60%) | < 1 µM | Cc1cccc(C)c1-c1cc2nc(n1)NS(=O)(=O)c1cccc(c1)C(=O)N(C1CC3(CC(N(C)C)C3)C1)[C@H](CC(C)(C)C)CO2 (some centres unmarked) [Compound 462] | –
+++ (+++ is >60%) | < 1 µM | Cc1cccc(C)c1-c1cc2nc(n1)NS(=O)(=O)c1cccc(c1)C(=O)N([C@H]1C[C@@H](OC(C)C)C1)[C@H](CC(C)C)CO2 (single isomer, unassigned) [Compound 45] | –
+++ (+++ is >60%) | < 1 µM | Cc1cccc(C)c1-c1cc2nc(n1)NS(=O)(=O)c1cccc(c1)C(=O)N(C1CC(NC(=O)OC(C)C)C1)[C@H](CC(C)(C)C)CO2 (stereo in doubt) [Compound 450] | –
+++ (+++ is >60%) | < 1 µM | Cc1cccc(C)c1-c1cc2nc(n1)NS(=O)(=O)c1cccc(c1)C(=O)N([C@H]1C[C@@H](OC(C)C)C1)[C@H](CC1(C(F)(F)F)CC1)CO2 (single isomer, unassigned) [Compound 131] | –
+++ (+++ is >60%) | < 1 µM | CNC1CC2(C1)CC(N1C(=O)c3cccc(c3)S(=O)(=O)Nc3nc(cc(-c4c(C)cccc4C)n3)OC[C@H]1CC(C)C)C2 (stereo in doubt) [Compound 282] | –
+++ (+++ is >60%) | < 1 µM | Cc1cccc(C)c1-c1cc2nc(n1)NS(=O)(=O)c1cccc(c1)C(=O)N(C1CC3(CC(N)C3)C1)[C@H](CC(C)C)CO2 (stereo in doubt) [Compound 292] | –
+++ (+++ is >60%) | < 1 µM | Cc1cccc(C)c1-c1cc2nc(n1)NS(=O)(=O)c1cccc(c1)C(=O)N(C1CC3(CCN(C(=O)COC(C)C)CC3)C1)[C@H](CC(C)C)CO2 [Compound 458] | –
+++ (+++ is >60%) | < 1 µM | CCC(=O)NC1CC(N2C(=O)c3cccc(c3)S(=O)(=O)Nc3nc(cc(-c4c(C)cccc4C)n3)OC[C@H]2CC(C)(C)C)C1 (stereo in doubt) [Compound 447] | –
+++ (+++ is >60%) | < 1 µM | Cc1cccc(C)c1-c1cc2nc(n1)NS(=O)(=O)c1cccc(c1)C(=O)N([C@H]1C[C@@H](N3CCOCC3)C1)[C@H](CC(C)C)CO2 [Compound 387] | –
